Inhibition data for 2 molecules are collected here from publication PMC9558053, “Development of a novel high-throughput screen for the identification of new inhibitors of protein S-acylation” (The Journal of Biological Chemistry, 2022).

This assay addresses T1, human zDHHC2 (Homo sapiens, UniProt Q9UIJ5).
T1 construct: expressed in transfected cells; host or cells: HEK293T
T1 sequence (Q9UIJ5 1-367): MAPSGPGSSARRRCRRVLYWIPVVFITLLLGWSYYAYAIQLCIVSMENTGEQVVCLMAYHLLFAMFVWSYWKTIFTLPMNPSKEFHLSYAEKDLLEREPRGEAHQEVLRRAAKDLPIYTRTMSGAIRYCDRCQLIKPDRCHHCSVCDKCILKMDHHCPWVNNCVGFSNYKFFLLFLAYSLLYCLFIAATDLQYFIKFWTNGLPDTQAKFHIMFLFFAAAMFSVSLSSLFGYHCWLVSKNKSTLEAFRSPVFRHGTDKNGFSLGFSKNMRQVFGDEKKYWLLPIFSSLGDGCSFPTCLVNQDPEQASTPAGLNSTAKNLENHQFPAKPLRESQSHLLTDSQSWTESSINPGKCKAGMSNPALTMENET
Description: TR-FRET high-throughput assay of zDHHC2 autoacylation (HA-zDHHC2 lipoparticles, NBD-palmitoyl-CoA). Type of assay: biochemical. Particulars: Ono; for inhibition at 4.2 µM: compound 4.2 μM; for inhibition at 12.5 µM: compound 12.5 μM. From the text: S-acylation is a two-step process involving enzyme “autoacylation” (at the cysteine of the DHHC motif) followed by transfer of the acyl chain to a substrate protein. To identify potential inhibitors of S-acylation, we developed an assay measuring enzyme autoacylation and focused on zDHHC2 given its prominent role in synaptic function in the nervous system (Fig. 1A). The assay monitors time-resolved FRET (TR-FRET) between the energy donor terbium cryptate (attached to an antibody recognizing hemagglutinin [HA]-tagged zDHHC2) and the acceptor fluorophore nitrobenzoxadiazole (NBD) (attached to the lipid group). The excitation of the energy donor terbium cryptate (360 nm) followed by its emission at 480 nm results in energy transfer to the acceptor NBD and emission at 539 nm. Enzyme autoacylation by NBD-conjugated palmitoyl-CoA increases the proximity of the terbium cryptate and NBD, leading to an increase in FRET signal. The resulting interaction is quantified as the ratiometric measurement of NBD (539 nm) over terbium (480 nm) emission and constitutes the TR-FRET signal.
Figure 1 High-throughput screen (HTS) for the discovery of chemical compounds modulating human zDHHC2 autoacylation activity: TR-FRET-based assay.A, experimental design of the HTS. HA-tagged zDHHC2 enzyme expressed at the surface of lipoparticles was incubated for 15 min at room temperature (RT) with NBD-tagged palmitoyl-CoA and an anti-HA antibody coupled to terbium (Tb) cryptate. Autoacylation of zDHHC2 on its catalytic cysteine brings closer the FRET donor Tb cryptate bound to the anti-HA antibody to the NBD fluorophore coupled to the palmitate and triggers FRET that can be followed over time (time-resolved FRET [TR-FRET]). B, TR-FRET was measured with increasing concentrations of NBD-palmitoyl-CoA (NBD-C16:0-CoA) and either WT zDHHC2 (left panel) or catalytically dead zDHHC2 C157S (right panel) over a period of 35 min. C, experimental conditions of the HTS screen. About 350,000 compounds were incubated individually in 1536-well plates at a concentration of 4.2 μM with zDHHC2 lipoparticles (42 μg/ml stock) for a few minutes before the addition of a mix containing the Tb cryptate–tagged anti-HA antibody (1:200 dilution) and 1 μM of NBD-palmitoyl-CoA (NBD-C16:0-CoA). TR-FRET was measured after a 15 min incubation at room temperature on a Biotek Synergy Neo apparatus. Results are given as a ratio between the FRET signal measured over a background baseline. D, histogram representation of ONO library screen showing the percentage of activity of zDHHC2 (as measured by TR-FRET) in the presence of each compound. The graph represents the number of compounds that are either activating (0 to 100) or inhibiting (0 to −100) zDHHC2 activity. […]
Background: TR-FRET usually uses a lanthanide donor and a delayed reading to cut background.

What is called inhibition is the percentage by which the read-out fell short of the control. `O=C(Nc1cccc2c1OC(c1nnn[nH]1)CN2)c1ccc(OCCCCc2ccccc2)cc1` (stereo not shown) [TTZ-2, N-(2-(1H-Tetrazol-5-yl)-3,4-dihydro-2H-benzo[b][1,4]oxazin-8-yl)-4-(4-phenylbutoxy)benzamide]: the inhibition at 4.2 µM is 45% and the inhibition at 12.5 µM is 69%.
Turning to `CCCCCCCOc1ccc(C(=O)Nc2cccc3c2OC(c2nnn[nH]2)CN3)cc1` (stereo not shown) [TTZ-1, N-(2-(1H-Tetrazol-5-yl)-3,4-dihydro-2H-benzo[b][1,4]oxazin-8-yl)-4-(heptyloxy)benzamide], the inhibition at 4.2 µM is 32% and the inhibition at 12.5 µM was 61%.
